Results published in US20250313574A1, “SIALIC ACID DERIVATIVES AND METHODS OF USING SAME” (EISAI R&D MANAGEMENT CO., LTD., priority 2022, published 2025).

Columns and labels:
[1] = molecular target: Recombinant human CD33 protein (Homo sapiens (Human), UniProt P20138); test: CD33 competitive binding assay for HTS drug screen (fluorescent multivalent sialic acid probe)
How it was run: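 Recombinant human CD33, coated overnight at 4° C from 10 μg/ml in pH 5.5 acetate, was preincubated briefly with compound. It was then exposed to a multivalent neutravidin/FITC/sialic acid analog A-375 probe (final 5 μM neutravidin, 15 μM A-375, 5 μM FITC) for 30 min at room temperature. After washing, bound FITC fluorescence was read.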

[2] = molecular target: Recombinant Human Siglec-3/CD33 protein (His-CD33) (Homo sapiens (Human), UniProt P20138); test: Differential scanning fluorimetry (DSF) thermal shift assay; format: binding
Chain of Recombinant Human Siglec-3/CD33 protein (His-CD33) (P20138 18-259): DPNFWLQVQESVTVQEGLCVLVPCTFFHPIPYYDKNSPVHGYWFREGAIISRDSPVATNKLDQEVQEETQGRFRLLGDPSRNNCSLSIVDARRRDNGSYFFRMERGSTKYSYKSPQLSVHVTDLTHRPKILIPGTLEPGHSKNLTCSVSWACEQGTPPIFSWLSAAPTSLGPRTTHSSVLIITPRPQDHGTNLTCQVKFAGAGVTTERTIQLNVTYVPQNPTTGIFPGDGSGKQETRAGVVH

[3] = difference in thermal melt of CD33 protein (0.5 μM) with 50 μM compound
[4] = thermal melt shift of 0.5 μM CD33 protein with 50 μM compound

Chain of Recombinant human CD33 protein (P20138 18-259): as above

Compound	EC50 [1]	DSF (dTmD) [2, 3]	DSF (dTmD) [2, 4]
CC(=O)N[C@H]1[C@H]2O[C@](C(=O)O)(C/C=C/c3cccc(c3)[C@@H](NC(=O)[C@@H]3CCCOC3)CCCCOc3c(C)cc(cc3C)C(=O)NC[C@@H](O)[C@H]2O)C[C@@H]1O [A-349]	5240 nM	5.5 °C	
CC(=O)N[C@H]1[C@H]([C@H](O)[C@H](O)CNC(=O)c2cc(F)c(C(F)(F)F)c(F)c2)O[C@@](CCN2CCOC[C@@]23CCN(C(=O)OC(C)(C)C)C3)(C(=O)O)C[C@@H]1O [A-166]	4000 nM		6.9
CC(=O)N[C@H]1[C@H]([C@H](O)[C@H](O)CNC(=O)c2cc(C)c(O)c(C)c2)O[C@@](CC2COC(C)(C)O2)(C(=O)O)C[C@@H]1O (some centres unmarked) [A-307]	103000 nM	0.0 °C	
CC(=O)N[C@H]1[C@H]([C@H](O)[C@H](O)CNC(=O)c2cc(C)c(O)c(C)c2)O[C@@](CCN2CCOCC2(C)CNC(=O)OC(C)(C)C)(C(=O)O)C[C@@H]1O (some centres unmarked) [A-009]	2000 nM		6.1
CC(=O)N[C@H]1[C@H]([C@H](O)[C@H](O)CNC(=O)c2cc(Cl)c(O)c(Cl)c2)O[C@@](CC2OC(C)(C)O[C@@H]2c2cccc(C(=O)NCc3ccccc3)c2)(C(=O)O)C[C@@H]1O (some centres unmarked) [A-322]	7790 nM	3.0 °C	
CC(=O)N[C@H]1[C@H]([C@H](O)[C@H](O)CNC(=O)c2cc(C)c(O)c(C)c2)O[C@@](CCCC2(C)CCN(C(=O)OC(C)(C)C)C2)(C(=O)O)C[C@@H]1O (some centres unmarked) [A-196]	257 nM		7.7
CC(=O)N[C@H]1[C@H]([C@H](O)[C@H](O)CNC(=O)c2cc(C)c(O)c(C)c2)O[C@@](CCN2CCOC[C@@]23CCN(C(=O)c2ccc(C)cc2)C3)(C(=O)O)C[C@@H]1O [A-099]	342 nM		7.3
CC(=O)N[C@H]1[C@H]([C@H](O)[C@H](O)CNC(=O)c2cc(C)c(O)c(C)c2)O[C@@](CCN2CCOC[C@@]23CCN(C(=O)C2(C(F)(F)F)CCCCC2)C3)(C(=O)O)C[C@@H]1O [A-102]	397 nM		7.5
CC(=O)N[C@H]1[C@H]([C@H](O)[C@H](O)CNC(=O)c2cc(C)c(O)c(C)c2)O[C@@](CCN2CCOC[C@@]23CCN(C(=O)OC(C)(C)C)C3)(C(=O)NC#N)C[C@@H]1O [A-366]	2830 nM	2.9 °C	
CC(=O)N[C@H]1[C@H]([C@H](O)[C@H](O)CNC(=O)c2ccc3[nH]nnc3c2)O[C@@](CCN2CCOC[C@@]23CCN(C(=O)OC(C)(C)C)C3)(C(=O)O)C[C@@H]1O [A-178]	146 nM		9.5
CC(=O)N[C@H]1[C@H]([C@H](O)[C@H](O)CNC(=O)c2cc(C)c(O)c(C)c2)O[C@@](C/C=C/c2cccc(CNC(=O)c3ccc4cn[nH]c4c3)c2)(C(=O)O)C[C@@H]1O [A-235]	2090 nM	3.3 °C	
Cc1cc(C(=O)NC[C@@H](O)[C@@H](O)[C@@H]2O[C@@](C/C=C/c3cccc(CNC(=O)c4ccccc4C(F)(F)F)c3)(C(=O)O)C[C@H](O)[C@H]2NC(=O)Cn2cc(C3CCCCC3)nn2)cc(C)c1O [A-269]	3460 nM	6.5 °C	
CC(=O)N[C@H]1[C@H]([C@H](O)[C@H](O)CNC(=O)c2cc(C)c(O)c(C)c2)O[C@@](CCN2CCOC[C@@]23CCN(C(=O)NC(C)C(F)(F)F)C3)(C(=O)O)C[C@@H]1O (some centres unmarked) [A-044]	19 nM		11.5
Cc1cc(C(=O)NC[C@@H](O)[C@@H](O)[C@@H]2O[C@@](C/C=C/c3cccc(CNC(=O)c4ccon4)c3)(C(=O)O)C[C@H](O)[C@H]2NC(=O)Cn2cc(C3CCCCC3)nn2)cc(C)c1O [A-271]	3990 nM	5.1 °C	
CC(=O)N[C@H]1[C@H]([C@H](O)[C@H](O)CNC(=O)c2ccc3occc3c2)O[C@@](CCN2CCOC[C@@]23CCN(C(=O)OC(C)(C)C)C3)(C(=O)O)C[C@@H]1O [A-137]	76 nM		12.7
CCN(CC)C(=O)N1CC[C@@]2(COCCN2CC[C@]2(C(=O)O)C[C@H](O)[C@@H](NC(C)=O)[C@H]([C@H](O)[C@H](O)CNC(=O)c3cc(C)c(O)c(C)c3)O2)C1 [A-066]	156 nM		8.4
CC(=O)N[C@H]1[C@H]([C@H](O)[C@H](O)CNC(=O)c2cc(C)c(O)c(C)c2)O[C@@](CCN2CCOC[C@@]23CCN(C(=S)NC2CCCCC2)C3)(C(=O)O)C[C@@H]1O [A-052]	66 nM		9.9
CC(=O)N[C@H]1[C@H]([C@H](O)[C@H](O)CNC(=O)c2ccc3ncsc3c2)O[C@@](CCN2CCOC[C@@]23CCN(C(=O)OC(C)(C)C)C3)(C(=O)O)C[C@@H]1O [A-110]	30 nM		12.2
CC(=O)N[C@H]1[C@H]([C@H](O)[C@H](O)CNC(=O)c2cn(C)nc2C(F)(F)F)O[C@@](CCN2CCOC[C@@]23CCN(C(=O)OC(C)(C)C)C3)(C(=O)O)C[C@@H]1O [A-174]	1170 nM		6.6

Compound	EC50 [1]	DSF (dTmD) [2, 3]	DSF (dTmD) [2, 4]
CC(=O)N[C@H]1[C@H]([C@H](O)[C@H](O)CNC(=O)c2cc(C)c(O)c(C)c2)O[C@@](C[C@@H]2COCC3(CCN(C(=O)OC(C)(C)C)CC3)N2)(C(=O)O)C[C@@H]1O [A-230]	10600 nM	1.1 °C	
Cc1cc(C(=O)NC[C@@H](O)[C@@H](O)[C@@H]2O[C@@](C/C=C/c3cccc(CNC(=O)c4cnccn4)c3)(C(=O)O)C[C@H](O)[C@H]2NC(=O)Cn2cc(C3CCCCC3)nn2)cc(C)c1O [A-270]	2800 nM	6.0 °C	
CC(=O)N[C@H]1[C@H]([C@H](O)[C@H](O)CNC(=O)c2cc(C)c(O)c(C)c2)O[C@@](C/C=C/c2cccc(CNC(=O)c3ccc4[nH]ccc4c3)c2)(C(=O)O)C[C@@H]1O [A-234]	930 nM	4.6 °C	
COCc1cc2cc(C(=O)NCc3cccc(/C=C/C[C@]4(C(=O)O)C[C@H](O)[C@@H](NC(C)=O)[C@H]([C@H](O)[C@H](O)CNC(=O)c5cc(C)c(O)c(C)c5)O4)c3)ccc2[nH]1 [A-232]	74 nM	9.8 °C	
CC(=O)N[C@H]1[C@H]([C@H](O)[C@H](O)CNC(=O)c2ccc3nsnc3c2)O[C@@](CCN2CCOC[C@@]23CCN(C(=O)OC(C)(C)C)C3)(C(=O)O)C[C@@H]1O [A-153]	196 nM		10.1
CC(=O)N[C@H]1[C@H]([C@H](O)[C@H](O)CNC(=O)c2cc(C)c(O)c(C)c2)O[C@@](C/C=C/c2cc(CNC(=O)C3CCCOC3)ccc2C)(C(=O)O)C[C@@H]1O (some centres unmarked) [A-289]	2680 nM	5.3 °C	
CC(=O)N[C@H]1[C@H]([C@H](O)[C@H](O)CNC(=O)c2cc(C)c(O)c(C)c2)O[C@@](CCN2CCOC[C@@]23CCN(C(=O)OC(C)(C)C)C3)(C(=O)O)C[C@@]1(C)O [A-201]	1720 nM	6.2 °C	
CC(=O)N[C@H]1[C@H]([C@H](O)[C@](C)(O)CNC(=O)c2cc(C)c(O)c(C)c2)O[C@@](CCN2CCOC[C@@]23CCN(C(=O)OC(C)(C)C)C3)(C(=O)O)C[C@@H]1O [A-204]	582 nM	5.0 °C	
CC(=O)N[C@H]1[C@H]([C@H](O)[C@H](O)CNC(=O)c2cc(C)c(O)c(C)c2)O[C@@](CC(O)[C@@H](O)c2cccc(NC(=O)CC(C)(C)C)c2)(C(=O)O)C[C@@H]1O (some centres unmarked) [A-304]	4700 nM	3.9 °C	
CC(=O)N[C@H]1[C@H]([C@H](O)[C@H](O)CNC(=O)c2cc(C)c(O)c(C)c2)O[C@@](CCN2CCN(C)C[C@]23CCN(C(=O)OC(C)(C)C)C3)(C(=O)O)C[C@@H]1O [A-011]	1630 nM		3.9
CC(=O)N[C@H]1[C@H]([C@H](O)[C@H](O)CNC(=O)c2ccc(C)c(C)c2)O[C@@](CCN2CCOC[C@@]23CCN(C(=O)OC(C)(C)C)C3)(C(=O)O)C[C@@H]1O [A-180]	74 nM		10.9
CC(=O)N[C@H]1[C@H]([C@H](O)[C@H](O)CNC(=O)c2cn[nH]c2)O[C@@](CCN2CCOC[C@@]23CCN(C(=O)OC(C)(C)C)C3)(C(=O)O)C[C@@H]1O [A-161]	1080 nM		5.9
CC(=O)N[C@H]1[C@H]([C@H](O)[C@H](O)CNC(=O)c2cc(C)c(O)c(C)c2)O[C@@](C[C@H]2COC[C@@]3(CCN(C(=O)NC(C)(C)C)C3)N2)(C(=O)O)C[C@@H]1O [A-228]	14 nM	13.4 °C	
CC(=O)N[C@H]1[C@H]([C@H](O)[C@H](O)CNC(=O)c2cc(C)c(O)c(C)c2)O[C@@](CCN2CCOC[C@@]23CCN(C(=O)OC(C)(C)C)C3)(c2nn[nH]n2)C[C@@H]1O [A-363]	6360 nM	2.6 °C	
COc1cc(C(=O)NC[C@@H](O)[C@@H](O)[C@@H]2O[C@@](CCN3CCOC[C@@]34CCN(C(=O)OC(C)(C)C)C4)(C(=O)O)C[C@H](O)[C@H]2NC(C)=O)cc(OC)c1O [A-123]	68 nM		11.0
CC(=O)N[C@H]1[C@H]([C@H](O)[C@H](O)CNC(=O)c2cc(C)c(O)c(C)c2)O[C@@](CCN2CCOC[C@@]23CCN(C(=O)Nc2ccc(C)cc2)C3)(C(=O)O)C[C@@H]1O [A-053]	147 nM		9.2
CC(=O)N[C@H]1[C@H]([C@H](O)[C@H](O)CNC(=O)c2cc(C)c(O)c(C)c2)O[C@@](CCN2CCOC[C@@]23CCN(C(=O)OC(C)(C)C)C3)(C(=O)O)C[C@]1(C)O [A-200]	131 nM	8.7 °C	
C=C[C@@H]1CN(C(=O)OC(C)(C)C)C[C@]1(C)NCC[C@]1(C(=O)O)C[C@H](O)[C@@H](NC(C)=O)[C@H]([C@H](O)[C@H](O)CNC(=O)c2cc(C)c(O)c(C)c2)O1 [A-035]	413 nM		7.4
